Molecular target: jack bean urease (Canavalia ensiformis, UniProt P07374)
Assay: urease inhibition by indophenol (Weatherburn) ammonia assay; Lineweaver-Burk, secondary replot and Dixon plot kinetics (IC50 […])
Type: biochemical

Chain of jack bean urease (P07374 whole entry, looked up): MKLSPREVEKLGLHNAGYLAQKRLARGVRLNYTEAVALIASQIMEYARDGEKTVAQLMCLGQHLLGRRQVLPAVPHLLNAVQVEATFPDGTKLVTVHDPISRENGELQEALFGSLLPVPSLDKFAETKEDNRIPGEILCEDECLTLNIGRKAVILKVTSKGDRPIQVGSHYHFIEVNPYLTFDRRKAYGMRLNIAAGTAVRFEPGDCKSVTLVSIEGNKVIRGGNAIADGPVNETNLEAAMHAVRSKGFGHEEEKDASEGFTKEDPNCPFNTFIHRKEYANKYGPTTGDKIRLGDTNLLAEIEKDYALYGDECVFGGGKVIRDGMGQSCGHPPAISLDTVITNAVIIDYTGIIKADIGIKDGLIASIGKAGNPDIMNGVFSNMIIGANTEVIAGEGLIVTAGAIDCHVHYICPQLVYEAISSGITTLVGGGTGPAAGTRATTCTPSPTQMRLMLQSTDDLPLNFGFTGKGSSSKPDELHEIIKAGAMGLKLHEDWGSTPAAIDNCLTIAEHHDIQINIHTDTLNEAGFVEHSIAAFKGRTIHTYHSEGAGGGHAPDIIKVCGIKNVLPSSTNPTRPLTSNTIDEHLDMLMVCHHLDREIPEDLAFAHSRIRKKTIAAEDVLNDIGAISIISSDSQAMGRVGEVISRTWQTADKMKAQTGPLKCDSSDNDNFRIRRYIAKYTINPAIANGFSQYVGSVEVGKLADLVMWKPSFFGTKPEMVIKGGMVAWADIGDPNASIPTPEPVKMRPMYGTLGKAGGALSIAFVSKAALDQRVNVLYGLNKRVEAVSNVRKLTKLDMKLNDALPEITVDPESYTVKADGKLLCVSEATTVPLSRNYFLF

**Q.** Which Ki does the source give for `C=C[C@@H](C1=CC(=O)C=C(OC)C1=O)c1ccccc1` [compound 1, 3-methoxydalbergione] here?
**A.** 138.16 ± 0.06 µM

Reference: paper PMC6270924, “A New Urease Inhibitor from Viola betonicifolia” (Molecules, 2014)
